One series concerns Caco-2 cells. Nature of the series: Cell permeability flux assay using Caco-2 cells. In kind it is in vitro ADME. The following applies: basal to apical, 2 hours. Here is the method: The cell permeability of a substance can be investigated by means of in vitro testing in a flux assay using Caco-2 cells [M. D. Troutman and D R Thakker, Pharm. Res. 20 (8), 1210-1224 (2003)]. For this purpose, the cells were cultured for 15-16 days on 24-well filter plates. For the determination of permeation, the respective working example was applied in a HEPES buffer to the cells either apically (A) or basally (B) and incubated for 2 hours. After 0 hours and after 2 hours, samples were taken from the cis and trans compartments. The samples were separated by HPLC (Agilent 1200, Boblingen, Germany) using reverse phase columns. The HPLC system was coupled via a Turbo Ion Spray Interface to a Triple Quadropol mass spectrometer API 4000 (Applied Biosystems Applera, Darmstadt, Germany). The permeability was evaluated on the basis of a Papp value, which was calculated using the formula published by Schwab et al. [D. Schwab et al., J. Med. Chem. 46, 1716-1725 (2003)].
(In general: Caco-2 cells form a polarised layer with tight junctions and transporters.)

A further series concerns the target T1, P-glycoprotein (P-gp) (Homo sapiens, UniProt P08183).
T1 construct: expressed in transfected cells; host or cells: LLC-PK1 (pig kidney) cells transfected with human MDR1 (L-MDR1 cells)
Kind of series: P-gp substrate flux assay in L-MDR1 cells. Conditions: L-MDR1 cells (P-gp overexpressing LLC-PK1); basal to apical; 2 hours. In kind it is in vitro ADME. Here is the method:
The substrate properties of a substance for P-gp (ABCB1) were determined by means of a flux assay using LLC-PK1 cells which overexpress P-gp (L-MDR1 cells) [A. H. Schinkel et al., J. Clin. Invest. 96, 1698-1705 (1995)]. For this purpose, the LLC-PK1 cells or L-MDR1 cells were cultured on 96-well filter plates for 3-4 days. For determination of the permeation, the respective test substance, alone or in the presence of an inhibitor (such as Ivermectin or Verapamil, for example), was applied in a HEPES buffer to the cells either apically (A) or basally (B) and incubated for 2 hours. After 0 hours and after 2 hours, samples were taken from the cis and trans compartments. The samples were separated by HPLC using reverse phase columns. The HPLC system was coupled via a Turbo Ion Spray Interface to a Triple Quadropol mass spectrometer API 3000 (Applied Biosystems Applera, Darmstadt, Germany). The permeability was evaluated on the basis of a Papp value which was calculated using the formula published by Schwab et al. [D. Schwab et al., J. Med. Chem. 46, 1716-1725 (2003)].

The test system of another series is tubulin. Nature of the series: Fluorescence-based microtubule polymerisation assay (DAPI). In kind it is biochemical. Here is the method:
Tubulin polymerization was investigated using the “Fluorescence-based Microtubule Polymerisation Assay Kit” from Cytoskeleton (Denver, Colo., USA; order number: BK011). With this assay, GTP is added to unpolymerized tubulin, allowing polymerization to take place spontaneously. The assay is based on the binding of the fluorophore 4′,6-diamidino-2-phenylindole (DAPI) to tubulin. Free and bound DAPI can be differentiated on the basis of different emission spectra.
[…] In addition to the buffer control, paclitaxel, with a polymerization-increasing effect, and vinblastin, with a polymerization inhibiting effect, were run additionally as assay controls. Measurement was carried out using 96-well plates with a half base area. The kinetics of the tubulin polymerization were monitored in a Fluorimeter at 37° C. for 1 hour. The excitation wavelength was 355 nm, and emission was monitored at 460 nm. For the region of linear increase within the first 10 minutes, a calculation was made of the change in fluorescence per minute (AF/min), which represents the polymerization rate of the microtubuli. The potency of the test substances was quantified on the basis of their respective reduction of the polymerization rate.

These results are taken from patent US8992932B2, “Binder-drug conjugates (ADCs) and use thereof” (Seattle Genetics, Inc., priority 2011, dated 2015).

T1 sequence (P08183 whole entry): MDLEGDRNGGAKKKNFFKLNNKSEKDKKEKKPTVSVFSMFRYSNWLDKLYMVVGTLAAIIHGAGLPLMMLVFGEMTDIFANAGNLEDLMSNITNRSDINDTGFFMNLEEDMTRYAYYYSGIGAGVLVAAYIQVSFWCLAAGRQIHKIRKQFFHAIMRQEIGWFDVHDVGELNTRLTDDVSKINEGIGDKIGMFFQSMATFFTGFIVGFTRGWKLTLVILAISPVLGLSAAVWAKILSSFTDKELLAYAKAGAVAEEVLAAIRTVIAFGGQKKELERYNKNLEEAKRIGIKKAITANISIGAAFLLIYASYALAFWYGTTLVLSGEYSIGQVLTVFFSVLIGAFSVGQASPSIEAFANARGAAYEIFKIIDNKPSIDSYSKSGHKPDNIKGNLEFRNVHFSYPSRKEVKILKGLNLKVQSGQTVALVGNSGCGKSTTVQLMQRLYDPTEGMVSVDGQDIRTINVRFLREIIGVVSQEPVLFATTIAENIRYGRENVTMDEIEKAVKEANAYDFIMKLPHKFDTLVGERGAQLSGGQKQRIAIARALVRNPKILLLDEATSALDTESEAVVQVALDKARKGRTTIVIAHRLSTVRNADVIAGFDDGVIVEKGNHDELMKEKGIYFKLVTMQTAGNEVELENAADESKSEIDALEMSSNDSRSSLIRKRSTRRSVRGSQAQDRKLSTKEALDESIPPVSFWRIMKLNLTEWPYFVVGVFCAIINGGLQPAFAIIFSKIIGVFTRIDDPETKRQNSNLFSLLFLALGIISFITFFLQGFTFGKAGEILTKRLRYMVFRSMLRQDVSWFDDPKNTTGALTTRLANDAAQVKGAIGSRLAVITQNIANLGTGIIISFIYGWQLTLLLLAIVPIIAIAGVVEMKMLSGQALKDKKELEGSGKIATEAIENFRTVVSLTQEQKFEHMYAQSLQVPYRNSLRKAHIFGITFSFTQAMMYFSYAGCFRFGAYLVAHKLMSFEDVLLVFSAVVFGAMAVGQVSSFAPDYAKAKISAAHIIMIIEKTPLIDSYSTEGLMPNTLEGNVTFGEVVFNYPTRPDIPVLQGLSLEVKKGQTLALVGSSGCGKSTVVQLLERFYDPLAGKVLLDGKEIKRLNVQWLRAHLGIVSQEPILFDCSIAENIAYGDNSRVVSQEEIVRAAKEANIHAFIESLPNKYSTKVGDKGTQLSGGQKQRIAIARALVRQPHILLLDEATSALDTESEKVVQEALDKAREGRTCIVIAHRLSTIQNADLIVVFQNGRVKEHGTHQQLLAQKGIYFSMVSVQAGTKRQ

With “N-[6-(3-{[(2R)-2-Amino-2-carboxyethyl]sulphanyl}-2,5-dioxopyrrolidin-1-yl)hexyl]-N-methyl-L-valyl-N-[(3R,4S,5S)-1-{(2S)-2-[(1R,2R)-3-{R1S)-1-carboxy-2-(1H-indol-3-yl)ethyl]amino}-1-methoxy-2-methyl-3-oxopropyl]pyrrolidin-1-yl}-3-methoxy-5-methyl-1-oxoheptan-4-yl]-N-methyl-L-valinamide [Example 75]”, the “Papp (B-A)” value was 0.1 ×10⁻⁶ cm/s in the series with Caco-2 cells and 0.4 ×10⁻⁶ cm/s on P-glycoprotein (P-gp). The “Tubulin polymerization in the presence of toxophore in [%]. Tubulin polymerization rate at 1 μM MMAF set at 100%” value is reported as 107% with tubulin (toxophore 1 μM) and 25% in the series with tubulin (toxophore 10 μM).
